Results published in ChEMBL document CHEMBL3046789, “Effect of s-metolachlor application timing on cabbage tolerance” (Crop Prot, 2007).

What was measured:
Format in all cases: organism-based
[1] = system: Brassica oleracea var. capitata; assay: Phyototoxicity against Brassica oleracea var. capitata (cabbage) assessed as crop injury at 2400 g a.i./ha applied 1 to 2 days prior to transplantation followed by incorporation into soil measured on day 14 post-transplantation; conditions: in vivo, other
[2] = system: Brassica oleracea var. capitata; assay: Phyototoxicity against Brassica oleracea var. capitata (cabbage) assessed as crop injury at 2400 g a.i./ha applied 1 to 2 days prior to transplantation measured on day 28 post-transplantation; conditions: in vivo, other
[3] = system: Brassica oleracea var. capitata; assay: Phyototoxicity against Brassica oleracea var. capitata (cabbage) assessed as crop injury at 800 g a.i./ha applied 1 to 2 days prior to transplantation followed by incorporation into soil measured on day 7 post-transplantation; conditions: in vivo, other
[4] = system: Brassica oleracea var. capitata; assay: Phyototoxicity against Brassica oleracea var. capitata (cabbage) assessed as crop injury at 800 g a.i./ha applied 1 to 2 days prior to transplantation measured on day 28 post-transplantation; conditions: in vivo, other
[5] = system: Brassica oleracea var. capitata; assay: Phytotoxicity against Brassica oleracea var. capitata (cabbage) assessed as yield at 2400 g a.i./ha applied 1 to 2 days prior to transplantation followed by incorporation into soil (reference value: 25.9 tons/ha); conditions: in vivo, other
[6] = system: Brassica oleracea var. capitata; assay: Phyototoxicity against Brassica oleracea var. capitata (cabbage) assessed as crop injury at 800 g a.i./ha applied 1 to 2 days after transplantation measured on day 7 post-transplantation; conditions: in vivo, other
[7] = system: Brassica oleracea var. capitata; assay: Phyototoxicity against Brassica oleracea var. capitata (cabbage) assessed as crop injury at 1600 g a.i./ha applied 1 to 2 days prior to transplantation measured on day 28 post-transplantation; conditions: in vivo, other
[8] = system: Brassica oleracea var. capitata; assay: Phytotoxicity against Brassica oleracea var. capitata (cabbage) assessed as yield at 800 g a.i./ha applied 1 to 2 days prior to transplantation followed by incorporation into soil (reference value: 25.9 tons/ha); conditions: in vivo, other
[9] = system: Brassica oleracea var. capitata; assay: Phyototoxicity against Brassica oleracea var. capitata (cabbage) assessed as crop injury at 1600 g a.i./ha applied 1 to 2 days prior to transplantation followed by incorporation into soil measured on day 14 post-transplantation; conditions: in vivo, other
[10] = system: Brassica oleracea var. capitata; assay: Phyototoxicity against Brassica oleracea var. capitata (cabbage) assessed as crop injury at 1600 g a.i./ha applied 1 to 2 days prior to transplantation measured on day 14 post-transplantation; conditions: in vivo, other
[11] = system: Brassica oleracea var. capitata; assay: Phyototoxicity against Brassica oleracea var. capitata (cabbage) assessed as crop injury at 800 g a.i./ha applied 1 to 2 days prior to transplantation followed by incorporation into soil measured on day 28 post-transplantation; conditions: in vivo, other
[12] = system: Brassica oleracea var. capitata; assay: Phyototoxicity against Brassica oleracea var. capitata (cabbage) assessed as crop injury at 800 g a.i./ha applied 1 to 2 days prior to transplantation followed by incorporation into soil measured on day 14 post-transplantation; conditions: in vivo, other
[13] = system: Brassica oleracea var. capitata; assay: Phytotoxicity against Brassica oleracea var. capitata (cabbage) assessed as yield at 2400 g a.i./ha applied 1 to 2 days after transplantation (reference value: 25.9 tons/ha); conditions: in vivo, other
[14] = system: Brassica oleracea var. capitata; assay: Phytotoxicity against Brassica oleracea var. capitata (cabbage) assessed as cabbage head weight at 2400 g a.i/ha applied 1 to 2 days prior to transplantation followed by incorporation into soil (reference value: 2465 g); conditions: in vivo, other
[15] = system: Brassica oleracea var. capitata; assay: Phyototoxicity against Brassica oleracea var. capitata (cabbage) assessed as crop injury at 2400 g a.i./ha applied 1 to 2 days prior to transplantation followed by incorporation into soil measured on day 7 post-transplantation; conditions: in vivo, other
[16] = system: Brassica oleracea var. capitata; assay: Phytotoxicity against Brassica oleracea var. capitata (cabbage) assessed as yield at 1600 g a.i./ha applied 1 to 2 days prior to transplantation followed by incorporation into soil (reference value: 25.9 tons/ha); conditions: in vivo, other
[17] = system: Brassica oleracea var. capitata; assay: Phytotoxicity against Brassica oleracea var. capitata (cabbage) assessed as decrease in number of marketable cabbage heads at 800 to 2400 g i.a./ha applied 1 to 2 days after transplantation relative to control; conditions: in vivo
[18] = system: Brassica oleracea var. capitata; assay: Phyototoxicity against Brassica oleracea var. capitata (cabbage) assessed as crop injury at 800 g a.i./ha applied 1 to 2 days prior to transplantation measured on day 7 post-transplantation; conditions: in vivo, other
[19] = system: Brassica oleracea var. capitata; assay: Phyototoxicity against Brassica oleracea var. capitata (cabbage) assessed as crop injury at 1600 g a.i./ha applied 1 to 2 days after transplantation measured on day 14 post-transplantation; conditions: in vivo
[20] = system: Brassica oleracea var. capitata; assay: Phyototoxicity against Brassica oleracea var. capitata (cabbage) assessed as crop injury at 1600 g a.i./ha applied 1 to 2 days after transplantation measured on day 28 post-transplantation; conditions: in vivo, other
[21] = system: Brassica oleracea var. capitata; assay: Phytotoxicity against Brassica oleracea var. capitata (cabbage) assessed as cabbage head weight at 2400 g a.i/ha applied 1 to 2 days prior to transplantation (reference value: 2465 g); conditions: in vivo, other
[22] = system: Brassica oleracea var. capitata; assay: Phytotoxicity against Brassica oleracea var. capitata (cabbage) assessed as decrease in number of marketable cabbage heads at 800 to 2400 g i.a./ha applied 1 to 2 days prior to transplantation followed by incorporation into soil relative to control; conditions: in vivo, other
[23] = system: Brassica oleracea var. capitata; assay: Phyototoxicity against Brassica oleracea var. capitata (cabbage) assessed as crop injury at 1600 g a.i./ha applied 1 to 2 days after transplantation measured on day 7 post-transplantation; conditions: in vivo, other
[24] = system: Brassica oleracea var. capitata; assay: Phyototoxicity against Brassica oleracea var. capitata (cabbage) assessed as crop injury at 1600 g a.i./ha applied 1 to 2 days prior to transplantation followed by incorporation into soil measured on day 7 post-transplantation; conditions: in vivo, other
[25] = system: Brassica oleracea var. capitata; assay: Phytotoxicity against Brassica oleracea var. capitata (cabbage) assessed as decrease in number of marketable cabbage heads at 800 to 2400 g i.a./ha applied 1 to 2 days prior to transplantation relative to control; conditions: in vivo, other
[26] = system: Brassica oleracea var. capitata; assay: Phytotoxicity against Brassica oleracea var. capitata (cabbage) assessed as cabbage head weight at 1600 g a.i/ha applied 1 to 2 days after transplantation (reference value: 2465 g); conditions: in vivo, other
[27] = system: Brassica oleracea var. capitata; assay: Phyototoxicity against Brassica oleracea var. capitata (cabbage) assessed as crop injury at 1600 g a.i./ha applied 1 to 2 days prior to transplantation followed by incorporation into soil measured on day 28 post-transplantation; conditions: in vivo, other
[28] = system: Brassica oleracea var. capitata; assay: Phytotoxicity against Brassica oleracea var. capitata (cabbage) assessed as cabbage head weight at 800 g a.i/ha applied 1 to 2 days prior to transplantation followed by incorporation into soil (reference value: 2465 g); conditions: in vivo, other
[29] = system: Brassica oleracea var. capitata; assay: Phyototoxicity against Brassica oleracea var. capitata (cabbage) assessed as crop injury at 1600 g a.i./ha applied 1 to 2 days prior to transplantation measured on day 7 post-transplantation; conditions: in vivo, other
[30] = system: Brassica oleracea var. capitata; assay: Phyototoxicity against Brassica oleracea var. capitata (cabbage) assessed as crop injury at 800 g a.i./ha applied 1 to 2 days prior to transplantation measured on day 14 post-transplantation; conditions: in vivo, other
[31] = system: Brassica oleracea var. capitata; assay: Phyototoxicity against Brassica oleracea var. capitata (cabbage) assessed as crop injury at 2400 g a.i./ha applied 1 to 2 days prior to transplantation followed by incorporation into soil measured on day 28 post-transplantation; conditions: in vivo, other
[32] = system: Brassica oleracea var. capitata; assay: Phyototoxicity against Brassica oleracea var. capitata (cabbage) assessed as crop injury at 2400 g a.i./ha applied 1 to 2 days after transplantation measured on day 14 post-transplantation; conditions: in vivo
[33] = system: Brassica oleracea var. capitata; assay: Phyototoxicity against Brassica oleracea var. capitata (cabbage) assessed as crop injury at 2400 g a.i./ha applied 1 to 2 days after transplantation measured on day 7 post-transplantation; conditions: in vivo, other
[34] = system: Brassica oleracea var. capitata; assay: Phytotoxicity against Brassica oleracea var. capitata (cabbage) assessed as yield at 800 g a.i./ha applied 1 to 2 days prior to transplantation (reference value: 25.9 tons/ha); conditions: in vivo, other
[35] = system: Brassica oleracea var. capitata; assay: Phytotoxicity against Brassica oleracea var. capitata (cabbage) assessed as yield at 800 g a.i./ha applied 1 to 2 days after transplantation (reference value: 25.9 tons/ha); conditions: in vivo, other
[36] = system: Brassica oleracea var. capitata; assay: Phyototoxicity against Brassica oleracea var. capitata (cabbage) assessed as crop injury at 2400 g a.i./ha applied 1 to 2 days prior to transplantation measured on day 7 post-transplantation; conditions: in vivo, other
[37] = system: Brassica oleracea var. capitata; assay: Phyototoxicity against Brassica oleracea var. capitata (cabbage) assessed as crop injury at 2400 g a.i./ha applied 1 to 2 days prior to transplantation measured on day 14 post-transplantation; conditions: in vivo, other
[38] = system: Brassica oleracea var. capitata; assay: Phytotoxicity against Brassica oleracea var. capitata (cabbage) assessed as cabbage head weight at 800 g a.i/ha applied 1 to 2 days prior to transplantation (reference value: 2465 g); conditions: in vivo
[39] = system: Brassica oleracea var. capitata; assay: Phytotoxicity against Brassica oleracea var. capitata (cabbage) assessed as cabbage head weight at 800 g a.i/ha applied 1 to 2 days after transplantation (reference value: 2465 g); conditions: in vivo, other
[40] = system: Brassica oleracea var. capitata; assay: Phyototoxicity against Brassica oleracea var. capitata (cabbage) assessed as crop injury at 800 g a.i./ha applied 1 to 2 days after transplantation measured on day 14 post-transplantation; conditions: in vivo
[41] = system: Brassica oleracea var. capitata; assay: Phytotoxicity against Brassica oleracea var. capitata (cabbage) assessed as cabbage head weight at 2400 g a.i/ha applied 1 to 2 days after transplantation (reference value: 2465 g); conditions: in vivo, other
[42] = system: Brassica oleracea var. capitata; assay: Phytotoxicity against Brassica oleracea var. capitata (cabbage) assessed as cabbage head weight at 1600 g a.i/ha applied 1 to 2 days prior to transplantation (reference value: 2465 g); conditions: in vivo, other
[43] = system: Brassica oleracea var. capitata; assay: Phyototoxicity against Brassica oleracea var. capitata (cabbage) assessed as crop injury at 2400 g a.i./ha applied 1 to 2 days after transplantation measured on day 28 post-transplantation; conditions: in vivo, other
[44] = system: Brassica oleracea var. capitata; assay: Phytotoxicity against Brassica oleracea var. capitata (cabbage) assessed as cabbage head weight at 1600 g a.i/ha applied 1 to 2 days prior to transplantation followed by incorporation into soil (reference value: 2465 g); conditions: in vivo, other
[45] = system: Brassica oleracea var. capitata; assay: Phytotoxicity against Brassica oleracea var. capitata (cabbage) assessed as yield at 1600 g a.i./ha applied 1 to 2 days after transplantation (reference value: 25.9 tons/ha); conditions: in vivo, other
[46] = system: Brassica oleracea var. capitata; assay: Phytotoxicity against Brassica oleracea var. capitata (cabbage) assessed as yield at 2400 g a.i./ha applied 1 to 2 days prior to transplantation (reference value: 25.9 tons/ha); conditions: in vivo, other
[47] = system: Brassica oleracea var. capitata; assay: Phyototoxicity against Brassica oleracea var. capitata (cabbage) assessed as crop injury at 800 g a.i./ha applied 1 to 2 days after transplantation measured on day 28 post-transplantation; conditions: in vivo, other
[48] = system: Brassica oleracea var. capitata; assay: Phytotoxicity against Brassica oleracea var. capitata (cabbage) assessed as yield at 1600 g a.i./ha applied 1 to 2 days prior to transplantation (reference value: 25.9 tons/ha); conditions: in vivo, other

## CCc1cccc(C)c1N(C(=O)CCl)[C@@H](C)COC [S-METOLACHLOR]
[1]
  Activity: 0%
[2]
  Activity: 0%
[3]
  Activity: 2%
[4]
  Activity: 0%
[5]
  Crop_yield: 25.7 tons/ha
[6]
  Activity: 3%
[7]
  Activity: 0%
[8]
  Crop_yield: 26.4 tons/ha
[9]
  Activity: 0%
[10]
  Activity: 1%
[11]
  Activity: 0%
[12]
  Activity: 0%
[13]
  Crop_yield: 27.7 tons/ha
[14]
  Activity: 2421 g
[15]
  Activity: 1%
[16]
  Crop_yield: 23.4 tons/ha
[17]
  Activity: Non-toxic
[18]
  Activity: 2%
[19]
  Activity: 0%
[20]
  Activity: 0%
[21]
  Activity: 2460 g
[22]
  Activity: Non-toxic
[23]
  Activity: 2%
[24]
  Activity: 3%
[25]
  Activity: Non-toxic
[26]
  Activity: 2556 g
[27]
  Activity: 0%
[28]
  Activity: 2413 g
[29]
  Activity: 2%
[30]
  Activity: 0%
[31]
  Activity: 0%
[32]
  Activity: 0%
[33]
  Activity: 0%
[34]
  Crop_yield: 26.7 tons/ha
[35]
  Crop_yield: 24.5 tons/ha
[36]
  Activity: 3%
[37]
  Activity: 0%
[38]
  Activity: 2386 g
[39]
  Activity: 2310 g
[40]
  Activity: 1%
[41]
  Activity: 2676 g
[42]
  Activity: 2540 g
[43]
  Activity: 0%
[44]
  Activity: 2255 g
[45]
  Crop_yield: 26.4 tons/ha
[46]
  Crop_yield: 25.4 tons/ha
[47]
  Activity: 0%
[48]
  Crop_yield: 27.1 tons/ha
